Data as given in article doi:10.1101/2025.01.28.635346v1 (bioRxiv, 2025).
Bridge positions count the residues as written; N and C are the ends. Side chains are listed from the residue outwards. Peptide text beside a SMILES is read from it. * marks the point of attachment. Butanoyl(4-(4-I-phenyl)) = O=C(CCCc1ccc(I)cc1)*; PEG2 = NCCOCCOCCC(=O)O

Key:
GR [1] = biological target: T1, GR (Homo sapiens, UniProt P04150); assay: Safetyscan47 NHR Protein Interaction, Antagonist; type: cell-based; conditions: for Emax: read-out: Max Response
T1 sequence (P04150 1-777): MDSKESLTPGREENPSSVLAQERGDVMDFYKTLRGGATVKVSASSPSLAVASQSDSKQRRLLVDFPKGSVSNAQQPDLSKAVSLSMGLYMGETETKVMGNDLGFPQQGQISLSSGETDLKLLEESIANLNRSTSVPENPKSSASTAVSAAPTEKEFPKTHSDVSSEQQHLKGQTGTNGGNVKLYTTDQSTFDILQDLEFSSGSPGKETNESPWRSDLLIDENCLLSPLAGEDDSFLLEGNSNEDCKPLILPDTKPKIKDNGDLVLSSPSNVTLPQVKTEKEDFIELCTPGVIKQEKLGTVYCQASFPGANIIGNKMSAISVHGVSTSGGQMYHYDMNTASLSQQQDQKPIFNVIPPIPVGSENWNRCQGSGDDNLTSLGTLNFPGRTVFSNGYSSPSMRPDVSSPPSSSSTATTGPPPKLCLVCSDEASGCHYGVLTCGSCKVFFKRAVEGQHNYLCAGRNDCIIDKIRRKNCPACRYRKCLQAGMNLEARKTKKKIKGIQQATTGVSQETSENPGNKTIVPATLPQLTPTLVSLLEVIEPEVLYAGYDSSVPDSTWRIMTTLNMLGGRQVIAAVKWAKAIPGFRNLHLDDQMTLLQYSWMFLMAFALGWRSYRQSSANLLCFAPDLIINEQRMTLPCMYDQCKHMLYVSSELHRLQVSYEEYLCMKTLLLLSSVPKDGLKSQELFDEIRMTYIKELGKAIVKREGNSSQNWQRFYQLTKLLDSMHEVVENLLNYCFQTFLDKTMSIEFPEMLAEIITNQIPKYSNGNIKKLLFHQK

AR = biological target: T2, AR (Homo sapiens, UniProt P10275); assay: Safetyscan47 NHR Nuclear Translocation, Antagonist; type: cell-based; conditions: for Emax: read-out: Max Response
T2 sequence (P10275 1-920): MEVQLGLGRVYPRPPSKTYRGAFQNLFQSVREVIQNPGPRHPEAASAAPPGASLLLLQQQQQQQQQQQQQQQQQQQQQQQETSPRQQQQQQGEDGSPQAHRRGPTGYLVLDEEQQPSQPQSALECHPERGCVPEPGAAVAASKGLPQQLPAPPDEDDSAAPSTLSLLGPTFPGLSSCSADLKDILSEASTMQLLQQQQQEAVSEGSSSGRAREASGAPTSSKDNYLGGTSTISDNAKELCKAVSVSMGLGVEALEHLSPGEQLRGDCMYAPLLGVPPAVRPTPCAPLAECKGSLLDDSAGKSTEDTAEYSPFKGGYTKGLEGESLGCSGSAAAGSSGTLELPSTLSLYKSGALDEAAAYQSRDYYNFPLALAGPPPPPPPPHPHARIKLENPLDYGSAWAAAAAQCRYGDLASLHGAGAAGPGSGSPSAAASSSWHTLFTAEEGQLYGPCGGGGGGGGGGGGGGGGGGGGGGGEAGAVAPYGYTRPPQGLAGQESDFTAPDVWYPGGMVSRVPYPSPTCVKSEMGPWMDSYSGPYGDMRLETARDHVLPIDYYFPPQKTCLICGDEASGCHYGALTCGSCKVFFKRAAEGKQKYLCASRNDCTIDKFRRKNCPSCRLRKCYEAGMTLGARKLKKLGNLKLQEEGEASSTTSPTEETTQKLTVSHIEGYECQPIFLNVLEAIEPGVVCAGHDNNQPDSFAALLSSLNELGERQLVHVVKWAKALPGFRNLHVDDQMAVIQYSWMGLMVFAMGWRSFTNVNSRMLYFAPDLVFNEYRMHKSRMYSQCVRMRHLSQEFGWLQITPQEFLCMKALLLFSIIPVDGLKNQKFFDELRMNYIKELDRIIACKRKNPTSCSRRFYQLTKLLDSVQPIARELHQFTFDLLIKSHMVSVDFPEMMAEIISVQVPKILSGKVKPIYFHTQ

[2] = Plasma stability, mouse plasma; type: in vitro ADME
[3] = Hepatocyte stability, cryopreserved human hepatocytes; type: in vitro ADME
ADORA2A = ADORA2A (Homo sapiens, UniProt P29274); assay: Safetyscan47 GPCR Calcium Flux, Agonist; type: cell-based; conditions: for Emax: read-out: Max Response
ADORA2A, sequence (P29274 whole entry): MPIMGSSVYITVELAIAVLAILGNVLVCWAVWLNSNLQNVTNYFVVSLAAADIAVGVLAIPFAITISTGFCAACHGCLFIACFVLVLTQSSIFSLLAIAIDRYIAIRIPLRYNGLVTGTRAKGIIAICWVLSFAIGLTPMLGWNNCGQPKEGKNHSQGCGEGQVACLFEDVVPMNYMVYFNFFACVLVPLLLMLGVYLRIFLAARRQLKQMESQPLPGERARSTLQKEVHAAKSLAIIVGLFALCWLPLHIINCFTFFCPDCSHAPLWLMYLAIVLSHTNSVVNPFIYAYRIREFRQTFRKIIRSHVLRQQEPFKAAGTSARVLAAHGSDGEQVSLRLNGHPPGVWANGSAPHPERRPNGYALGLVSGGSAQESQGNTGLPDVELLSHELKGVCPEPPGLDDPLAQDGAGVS

AVPR1A = AVPR1A (Homo sapiens, UniProt P37288); assay: Safetyscan47 GPCR Calcium Flux, Antagonist; type: cell-based; conditions: for Emax: read-out: Max Response
AVPR1A, sequence (P37288 whole entry): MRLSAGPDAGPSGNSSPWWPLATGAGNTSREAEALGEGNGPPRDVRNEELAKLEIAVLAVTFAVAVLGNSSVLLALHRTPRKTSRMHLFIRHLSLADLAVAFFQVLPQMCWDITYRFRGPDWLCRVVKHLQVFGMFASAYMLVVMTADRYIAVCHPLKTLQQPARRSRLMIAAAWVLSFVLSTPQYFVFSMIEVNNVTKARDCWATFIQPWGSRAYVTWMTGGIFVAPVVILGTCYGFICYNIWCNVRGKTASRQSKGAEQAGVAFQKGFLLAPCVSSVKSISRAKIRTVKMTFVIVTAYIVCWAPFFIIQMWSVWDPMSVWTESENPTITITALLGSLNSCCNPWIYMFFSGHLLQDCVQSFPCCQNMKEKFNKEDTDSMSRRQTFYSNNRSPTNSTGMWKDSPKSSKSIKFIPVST

GR [4] = biological target: T1, GR; assay: Safetyscan47 NHR Protein Interaction, Agonist; type: cell-based; conditions: for Emax: read-out: Max Response
HTR2A = HTR2A (Homo sapiens, UniProt P28223); assay: Safetyscan47 GPCR Calcium Flux, Antagonist; type: cell-based; conditions: for Emax: read-out: Max Response
HTR2A, sequence (P28223 whole entry): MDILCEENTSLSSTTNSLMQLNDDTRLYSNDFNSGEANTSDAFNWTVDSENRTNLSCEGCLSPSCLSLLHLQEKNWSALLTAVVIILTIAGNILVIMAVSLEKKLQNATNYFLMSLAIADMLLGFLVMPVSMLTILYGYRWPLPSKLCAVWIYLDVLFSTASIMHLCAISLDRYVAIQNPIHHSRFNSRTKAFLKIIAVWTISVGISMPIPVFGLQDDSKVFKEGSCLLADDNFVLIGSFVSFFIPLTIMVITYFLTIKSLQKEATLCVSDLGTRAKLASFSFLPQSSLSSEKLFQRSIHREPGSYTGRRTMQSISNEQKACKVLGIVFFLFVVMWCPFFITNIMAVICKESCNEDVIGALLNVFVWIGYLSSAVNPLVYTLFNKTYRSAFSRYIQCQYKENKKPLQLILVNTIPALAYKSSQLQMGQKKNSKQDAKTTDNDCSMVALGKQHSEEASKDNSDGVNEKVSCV

COX2 = biological target: T3, COX2 (Homo sapiens, UniProt P35354); assay: Safetyscan47 Non-Kinase Enzymes Enzymatic, Inhibitor; type: biochemical; conditions: for Emax: read-out: Max Response
T3 sequence (P35354 18-604): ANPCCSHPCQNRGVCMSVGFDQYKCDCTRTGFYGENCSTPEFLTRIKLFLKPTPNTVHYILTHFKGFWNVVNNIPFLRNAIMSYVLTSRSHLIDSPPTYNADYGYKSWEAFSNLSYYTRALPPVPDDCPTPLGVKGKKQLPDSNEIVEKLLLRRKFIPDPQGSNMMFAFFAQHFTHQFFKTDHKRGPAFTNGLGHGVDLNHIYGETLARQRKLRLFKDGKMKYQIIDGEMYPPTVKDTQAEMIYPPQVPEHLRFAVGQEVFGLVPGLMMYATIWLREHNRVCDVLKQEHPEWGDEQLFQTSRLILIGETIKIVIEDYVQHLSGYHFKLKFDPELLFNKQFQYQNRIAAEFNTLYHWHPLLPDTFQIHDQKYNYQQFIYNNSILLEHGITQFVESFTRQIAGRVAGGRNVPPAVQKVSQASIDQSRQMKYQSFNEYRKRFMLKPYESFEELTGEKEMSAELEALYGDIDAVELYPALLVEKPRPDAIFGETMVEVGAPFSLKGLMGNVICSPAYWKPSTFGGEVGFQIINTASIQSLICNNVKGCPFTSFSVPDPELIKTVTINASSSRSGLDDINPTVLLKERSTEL

DRD2S = DRD2S (Homo sapiens, UniProt P14416); assay: Safetyscan47 GPCR cAMP, Agonist; type: cell-based; conditions: for Emax: read-out: Max Response
DRD2S, sequence (P14416 1-414 isoform P14416-2): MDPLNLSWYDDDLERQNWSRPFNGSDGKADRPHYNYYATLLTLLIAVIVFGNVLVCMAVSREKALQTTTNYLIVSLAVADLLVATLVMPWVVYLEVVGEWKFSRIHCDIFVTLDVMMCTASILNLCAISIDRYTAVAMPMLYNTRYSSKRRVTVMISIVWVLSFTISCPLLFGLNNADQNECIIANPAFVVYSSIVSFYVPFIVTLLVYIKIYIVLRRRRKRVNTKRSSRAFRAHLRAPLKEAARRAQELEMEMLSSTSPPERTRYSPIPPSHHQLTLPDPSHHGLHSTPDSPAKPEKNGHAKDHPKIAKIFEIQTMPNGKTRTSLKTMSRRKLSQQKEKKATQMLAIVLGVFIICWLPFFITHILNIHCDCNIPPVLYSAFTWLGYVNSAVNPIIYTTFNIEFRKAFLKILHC

Compound	IC50 (GR [1])	Emax (GR [1])	IC50 (AR)	Emax (AR)	remaining at 0.5 h, 2 μM [2]	remaining at 4 h, 2 μM [2]	remaining at 1 h, 2 μM [3]	remaining at 3 h, 2 μM [3]	EC50 (ADORA2A)	Emax (ADORA2A)	IC50 (AVPR1A)	Emax (AVPR1A)	EC50 (GR [4])	Emax (GR [4])	IC50 (HTR2A)	Emax (HTR2A)	IC50 (COX2)	Emax (COX2)	EC50 (DRD2S)	Emax (DRD2S)	further results
CC[C@H](C)[C@H](NC(=O)[C@H](CC(C)C)NC(=O)[C@H](CC(=O)O)NC(=O)CNC(=O)[C@H](CCCNC(=N)N)NC(=O)[C@@H](NC(=O)[C@H](Cc1ccccc1)NC(=O)[C@H](Cc1ccc(O)cc1)NC(=O)[C@@H]1CCC(=O)NCC(=O)NCC(=O)N[C@@H](CCCNC(=N)N)C(=O)NCC(=O)N[C@@H](Cc2c[nH]cn2)C(=O)N[C@@H](C(C)C)C(=O)N2CCC[C@H]2C(=O)N1)C(C)C)C(=O)N[C@@H](CO)C(=O)N[C@@H](Cc1ccccc1)C(=O)N[C@@H](Cc1ccc(O)cc1)C(=O)N[C@@H](CCCCN)C(=O)O [lassotide 36] (GGRGHVPEYFVRGDLISFYK-OH; lactam N-8)	> 45 µM	0%	> 45 µM	0%	88.7%	56.1%	87.9%	57.8%	> 45 µM	38.9%	> 45 µM	13.3%	> 45 µM	0%	> 45 µM	5.08%	> 45 µM	26.5%	> 45 µM	0%	half-life at 2 μM [2]: 5.1 h; half-life at 2 μM [3]: 4.1 h
CC[C@H](C)[C@H](NC(=O)[C@H](CC(C)C)NC(=O)[C@H](CC(=O)O)NC(=O)CNC(=O)[C@H](CCCNC(=N)N)NC(=O)[C@@H](NC(=O)[C@H](Cc1ccccc1)NC(=O)[C@H](Cc1ccc(O)cc1)NC(=O)[C@@H]1CCC(=O)NCC(=O)NCC(=O)N[C@@H](CCCNC(=N)N)C(=O)NCC(=O)N[C@@H](Cc2c[nH]cn2)C(=O)N[C@@H](C(C)C)C(=O)N2CCC[C@H]2C(=O)N1)C(C)C)C(=O)N[C@@H](CO)C(=O)N[C@@H](Cc1ccccc1)C(=O)N[C@@H](Cc1ccc(O)cc1)C(=O)N[C@@H](CCCCNC(=O)CCOCCOCCNC(=O)CCCc1ccc(I)cc1)C(=O)O [lassotide 47] (GGRGHVPEYFVRGDLISFYK([PEG2-Butanoyl(4-(4-I-phenyl))])-OH; lactam N-8)	> 45 µM	0%	> 45 µM	0%	86.3%	86.9%	85.3%	84.8%	> 45 µM	0%	> 45 µM	25.8%	> 45 µM	0%	> 45 µM	10.7%	> 45 µM	18.7%	> 45 µM	24.1%	
